Here are results for one molecule from US10336707B2, “Heterocyclic derivatives modulating activity of certain protein kinases” (EUDENDRON S.R.L., priority 2014, dated 2019).

For one assay, the target named is T1, ALK F1174L (GST-His-tag) (Homo sapiens, UniProt Q9UM73, F1174L).
T1 construct: either as full-length or enzymatically active fragments; purchased ProQinase GmbH (Freiburg, Germany)
The assay is described as follows: Radiometric protein kinase assay (33PanQuinase Activity Assay), ALK F1174L. In kind it is biochemical. To be noted: ATP 0.3 μM. The protocol: (§1) A proprietary radiometric protein kinase assay (33PanQuinase® Activity Assay) developed by ProQuinase GmbH (Freiburg, Germany) was used for measuring the kinase activity of selected protein kinases. All assays were performed in FlashPlates™ wells 96 Perkin Elmer (Boston, Mass., USA) in a reaction volume of 50 μl. The reaction mixture was obtained in 4 steps in the following order: • 1. 10 μl of a solution of non-radioactive ATP in water; • 2. 25 μl of assay buffer/[γ-^33P]-ATP mixture • 3. 5 μl of test sample in 10% DMSO • 4. 10 μl of enzyme/substrate mixture
(§2) All protein kinases provided by ProQinase were expressed in Sf9 insect cells or in E. coli as recombinant GST-fusion proteins or His-tagged proteins, either as full-length or enzymatically active fragments. […] Kinases from external vendors (CAR=Carna Biosciences Inc.; INV=Life Technologies (Invitrogen Corporation); MIL=Merck-Millipore (Millipore Corporation), were expressed, purified and quality-controlled by virtue of the vendors readings.
(§3) A stock solution of compound of formula (I) was diluted to 5×10-04M/100% DMSO. […] Incorporation of 33Pi (counting of “cpm”) was determined with a microplate scintillation counter (Microbeta, Wallac). […]
(§4) Based on each 10 corresponding residual activities, IC50 values were calculated using Prism 5.04 for Windows (Graphpad, San Diego, Calif.). […]

The next assay concerns the target T2, TRK-B (Homo sapiens, UniProt Q16620).
T2 construct: either as full-length or enzymatically active fragments; purchased ProQinase GmbH (Freiburg, Germany)
Description: Radiometric protein kinase assay (33PanQuinase Activity Assay), TRK-B. In kind it is biochemical. The note with it: ATP 0.3 μM. The protocol:
as §1, §2, §3, §4

The subject of a further assay is ALK-negative HL60 cells. The assay is described as follows: Tritiated thymidine uptake cell proliferation assay, HL60 (ALK-negative control). The class given is cell-based. The note with it: Homo sapiens, HL-60; cell line HL60, ALK negative control; read-out: IC50 of cellular proliferation, HL60. The method, then: Method: Tritiated Thymidine Uptake Cell Proliferation Assay
The following procedure was used with parent untransformed BaF3 cells, BaF3 cells transformed with the oncogenic fusion protein NPM/ALK, NPM/ALK positive SUDHL-1 cells, NPM/ALK positive SUPM2, ALK-negative HL60 cells, NPM/ALK positive KARPAS-299 cells. The parent untransformed BaF3 cells or Alk-negative HL60 cells are used as controls. Cells were seeded in U-bottomed 96-well plates at 10000 cells/well in a volume of 100 μl in supplemented medium. In the case of the parent untransformed BaF3 cells, the medium was supplemented with IL-3. Serial dilutions of inhibitors were added to the appropriate wells and volumes adjusted to 200 μl. Controls were treated with the equivalent volume of vehicle, DMSO, alone. Plates were incubated at 37° C. for 72 h. 3[H]-thymidine (1 μCi/well) was added for the last 16 h of incubation. Cells were harvested on to paper filters and 3[H]-thymidine incorporation was measured using a scintillation counter (1430 MicroBeta, Wallac, Turku, Finland). The 50% inhibitory concentration (IC50) was defined as the concentration of inhibitor, expressed in nanomolar units, that gave a 50% decrease in 3[H]-thymidine uptake compared with controls.
Potentially toxic effects were assessed using parent untransformed BaF3 cells or ALK negative HL60 cells. […]

A further assay addresses T3, RET M918T (Homo sapiens, UniProt P07949, M918T).
T3 construct: either as full-length or enzymatically active fragments; purchased ProQinase GmbH (Freiburg, Germany)
The assay is described as follows: Radiometric protein kinase assay (33PanQuinase Activity Assay), RET M918T. The class given is biochemical. To be noted: ATP 0.3 μM. The method, then: as §1, §2, §3, §4

In assay [1] the target is T4, BaF3 cell line transfected with the oncogenic fusion protein NPM-ALK and expressing the mutation L1196M (Homo sapiens, UniProt Q9UM73, L1196M, cells depend on it).
T4 construct: fused on or other part: P06748 (Nucleophosmin)
The assay is described as follows: Tritiated thymidine uptake cell proliferation assay, BaF3 NPM-ALK L1196M. The class given is cell-based, murine.

Where two headings read alike, the source gives them in different places.

T4 sequence (Q9UM73 whole entry L1196M, the tested form may be a part): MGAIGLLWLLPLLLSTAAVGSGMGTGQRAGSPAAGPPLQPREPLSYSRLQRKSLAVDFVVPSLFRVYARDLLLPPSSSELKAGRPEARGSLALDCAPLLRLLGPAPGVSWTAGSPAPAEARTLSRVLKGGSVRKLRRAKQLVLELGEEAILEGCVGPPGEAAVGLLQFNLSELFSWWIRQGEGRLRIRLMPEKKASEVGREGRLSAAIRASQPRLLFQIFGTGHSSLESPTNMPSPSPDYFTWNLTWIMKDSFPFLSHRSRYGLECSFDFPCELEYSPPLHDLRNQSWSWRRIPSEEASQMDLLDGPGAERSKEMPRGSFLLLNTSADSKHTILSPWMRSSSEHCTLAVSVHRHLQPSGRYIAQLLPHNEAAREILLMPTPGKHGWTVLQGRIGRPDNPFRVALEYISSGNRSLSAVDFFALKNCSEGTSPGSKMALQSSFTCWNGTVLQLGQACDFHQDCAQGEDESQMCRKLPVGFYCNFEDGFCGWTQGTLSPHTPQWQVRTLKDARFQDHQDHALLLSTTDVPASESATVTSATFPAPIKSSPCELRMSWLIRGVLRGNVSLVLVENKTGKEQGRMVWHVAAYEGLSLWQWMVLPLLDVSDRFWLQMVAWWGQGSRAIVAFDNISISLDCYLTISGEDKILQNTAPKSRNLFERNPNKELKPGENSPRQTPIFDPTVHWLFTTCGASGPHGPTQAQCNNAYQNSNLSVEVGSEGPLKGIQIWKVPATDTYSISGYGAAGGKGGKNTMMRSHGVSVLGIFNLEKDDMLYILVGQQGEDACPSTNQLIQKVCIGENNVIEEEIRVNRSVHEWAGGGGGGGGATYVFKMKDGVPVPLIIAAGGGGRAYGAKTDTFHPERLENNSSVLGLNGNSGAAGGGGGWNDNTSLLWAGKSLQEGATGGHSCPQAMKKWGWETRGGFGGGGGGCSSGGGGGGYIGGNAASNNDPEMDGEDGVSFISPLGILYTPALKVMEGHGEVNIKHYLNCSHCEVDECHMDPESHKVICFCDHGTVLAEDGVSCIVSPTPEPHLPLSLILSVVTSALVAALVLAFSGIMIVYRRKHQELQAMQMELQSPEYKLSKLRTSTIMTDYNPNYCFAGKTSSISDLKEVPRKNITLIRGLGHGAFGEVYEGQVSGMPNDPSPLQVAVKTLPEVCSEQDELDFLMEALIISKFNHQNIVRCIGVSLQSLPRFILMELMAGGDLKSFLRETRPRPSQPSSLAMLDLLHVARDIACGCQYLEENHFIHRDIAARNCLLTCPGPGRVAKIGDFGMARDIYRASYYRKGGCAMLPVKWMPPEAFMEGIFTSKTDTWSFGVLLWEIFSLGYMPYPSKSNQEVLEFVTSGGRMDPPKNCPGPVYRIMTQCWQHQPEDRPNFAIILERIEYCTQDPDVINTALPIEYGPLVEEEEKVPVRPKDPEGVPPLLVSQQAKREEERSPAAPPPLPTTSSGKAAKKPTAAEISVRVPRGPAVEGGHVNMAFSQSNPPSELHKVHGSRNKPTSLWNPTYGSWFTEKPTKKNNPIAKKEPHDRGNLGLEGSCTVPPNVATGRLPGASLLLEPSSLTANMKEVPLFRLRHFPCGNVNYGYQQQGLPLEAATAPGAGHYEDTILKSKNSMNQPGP
T1 sequence (Q9UM73 19-1620 F1174L): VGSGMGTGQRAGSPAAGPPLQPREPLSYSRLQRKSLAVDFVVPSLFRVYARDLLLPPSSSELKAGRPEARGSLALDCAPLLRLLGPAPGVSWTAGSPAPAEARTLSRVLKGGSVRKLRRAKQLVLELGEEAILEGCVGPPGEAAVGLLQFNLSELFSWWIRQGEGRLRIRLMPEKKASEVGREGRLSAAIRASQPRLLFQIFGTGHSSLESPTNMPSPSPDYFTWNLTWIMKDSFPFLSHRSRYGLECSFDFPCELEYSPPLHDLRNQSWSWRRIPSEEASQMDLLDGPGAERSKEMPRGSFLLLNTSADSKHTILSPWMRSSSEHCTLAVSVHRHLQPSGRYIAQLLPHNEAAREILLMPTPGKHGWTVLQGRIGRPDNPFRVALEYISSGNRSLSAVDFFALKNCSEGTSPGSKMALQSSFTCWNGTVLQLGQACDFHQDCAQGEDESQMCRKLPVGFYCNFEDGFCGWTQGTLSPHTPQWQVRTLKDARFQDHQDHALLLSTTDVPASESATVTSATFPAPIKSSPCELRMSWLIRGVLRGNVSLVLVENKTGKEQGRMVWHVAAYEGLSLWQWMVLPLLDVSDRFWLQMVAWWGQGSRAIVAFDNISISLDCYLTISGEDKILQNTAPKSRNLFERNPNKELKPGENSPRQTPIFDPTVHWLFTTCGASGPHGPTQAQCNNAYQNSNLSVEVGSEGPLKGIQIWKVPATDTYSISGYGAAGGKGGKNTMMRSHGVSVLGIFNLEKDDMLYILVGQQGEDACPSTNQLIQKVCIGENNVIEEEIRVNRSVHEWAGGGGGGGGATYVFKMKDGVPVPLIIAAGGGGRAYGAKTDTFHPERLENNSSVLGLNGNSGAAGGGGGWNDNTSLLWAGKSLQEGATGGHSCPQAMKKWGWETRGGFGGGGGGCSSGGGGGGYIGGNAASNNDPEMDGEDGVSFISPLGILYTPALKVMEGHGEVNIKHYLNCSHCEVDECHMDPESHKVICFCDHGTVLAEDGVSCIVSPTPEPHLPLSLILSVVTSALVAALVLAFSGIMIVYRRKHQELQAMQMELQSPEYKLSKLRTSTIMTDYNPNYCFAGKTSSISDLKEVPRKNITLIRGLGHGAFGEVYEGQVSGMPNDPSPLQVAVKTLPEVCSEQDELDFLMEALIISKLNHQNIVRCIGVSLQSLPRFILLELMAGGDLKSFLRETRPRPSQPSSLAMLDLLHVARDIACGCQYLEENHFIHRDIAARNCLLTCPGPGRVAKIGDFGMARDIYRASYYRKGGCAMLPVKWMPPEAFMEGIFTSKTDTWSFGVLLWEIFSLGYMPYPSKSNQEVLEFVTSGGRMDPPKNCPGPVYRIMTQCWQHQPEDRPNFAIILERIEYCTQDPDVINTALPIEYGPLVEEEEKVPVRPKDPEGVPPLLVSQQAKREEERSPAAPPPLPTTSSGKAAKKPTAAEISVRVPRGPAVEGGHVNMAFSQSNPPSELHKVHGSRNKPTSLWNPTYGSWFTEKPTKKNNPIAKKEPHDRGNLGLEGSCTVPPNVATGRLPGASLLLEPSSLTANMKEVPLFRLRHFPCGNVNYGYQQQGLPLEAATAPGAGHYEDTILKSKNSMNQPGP
T3 sequence (P07949 29-1114 M918T): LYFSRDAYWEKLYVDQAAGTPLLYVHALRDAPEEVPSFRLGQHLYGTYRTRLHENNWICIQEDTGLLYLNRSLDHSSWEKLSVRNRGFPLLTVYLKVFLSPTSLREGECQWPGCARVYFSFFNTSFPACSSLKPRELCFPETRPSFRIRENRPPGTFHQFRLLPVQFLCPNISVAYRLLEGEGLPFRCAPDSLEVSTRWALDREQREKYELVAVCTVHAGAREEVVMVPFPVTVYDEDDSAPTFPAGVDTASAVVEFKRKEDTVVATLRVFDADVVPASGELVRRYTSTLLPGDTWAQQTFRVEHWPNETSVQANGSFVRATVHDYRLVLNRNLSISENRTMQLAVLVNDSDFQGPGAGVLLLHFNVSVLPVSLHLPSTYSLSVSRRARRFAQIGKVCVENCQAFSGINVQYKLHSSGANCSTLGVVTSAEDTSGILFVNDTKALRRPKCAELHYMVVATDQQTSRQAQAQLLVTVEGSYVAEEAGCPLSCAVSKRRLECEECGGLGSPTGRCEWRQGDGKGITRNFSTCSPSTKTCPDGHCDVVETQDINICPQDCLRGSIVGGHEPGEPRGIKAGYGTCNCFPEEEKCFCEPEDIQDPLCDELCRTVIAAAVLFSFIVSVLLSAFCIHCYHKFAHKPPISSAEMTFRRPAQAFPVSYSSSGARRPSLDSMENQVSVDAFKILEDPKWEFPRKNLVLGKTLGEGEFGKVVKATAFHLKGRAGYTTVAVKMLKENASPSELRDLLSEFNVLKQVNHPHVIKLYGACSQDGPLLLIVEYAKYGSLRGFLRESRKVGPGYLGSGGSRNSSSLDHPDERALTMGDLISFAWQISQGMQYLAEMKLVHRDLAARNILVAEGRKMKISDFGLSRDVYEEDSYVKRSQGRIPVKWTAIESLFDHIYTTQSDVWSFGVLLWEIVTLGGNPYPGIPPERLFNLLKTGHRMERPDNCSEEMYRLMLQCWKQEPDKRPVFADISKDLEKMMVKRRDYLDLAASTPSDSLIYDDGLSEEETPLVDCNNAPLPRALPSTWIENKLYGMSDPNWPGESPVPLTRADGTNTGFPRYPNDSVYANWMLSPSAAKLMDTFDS
T2 sequence (Q16620 32-822): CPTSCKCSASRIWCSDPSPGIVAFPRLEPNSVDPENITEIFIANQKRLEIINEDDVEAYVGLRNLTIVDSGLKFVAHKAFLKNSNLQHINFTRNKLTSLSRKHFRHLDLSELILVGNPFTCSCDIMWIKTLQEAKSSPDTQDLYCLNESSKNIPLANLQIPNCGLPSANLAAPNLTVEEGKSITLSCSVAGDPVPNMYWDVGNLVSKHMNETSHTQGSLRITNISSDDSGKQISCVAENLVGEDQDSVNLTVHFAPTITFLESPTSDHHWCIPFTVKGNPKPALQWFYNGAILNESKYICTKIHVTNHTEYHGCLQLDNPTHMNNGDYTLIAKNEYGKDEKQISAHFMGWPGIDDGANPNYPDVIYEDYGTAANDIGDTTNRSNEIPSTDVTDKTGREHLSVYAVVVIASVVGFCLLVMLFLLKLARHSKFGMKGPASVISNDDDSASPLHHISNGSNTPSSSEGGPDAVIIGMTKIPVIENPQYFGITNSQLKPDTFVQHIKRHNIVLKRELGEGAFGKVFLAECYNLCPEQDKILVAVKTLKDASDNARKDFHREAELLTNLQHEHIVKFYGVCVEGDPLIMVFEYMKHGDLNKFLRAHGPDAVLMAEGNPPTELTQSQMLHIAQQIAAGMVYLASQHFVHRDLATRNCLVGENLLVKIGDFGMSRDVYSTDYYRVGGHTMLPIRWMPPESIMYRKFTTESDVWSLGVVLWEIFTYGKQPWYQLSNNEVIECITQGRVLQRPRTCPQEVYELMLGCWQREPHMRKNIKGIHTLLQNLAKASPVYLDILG

With `CN1CCN(c2ccc(C(=O)Nc3n[nH]c4cc(-c5ccc(O)cc5)c(Cc5cc(F)cc(F)c5)cc34)c(NC3CCOCC3)c2)CC1` [Example 3, N-[5-[(3,5-difluorophenyl)methyl]-6-(4-hydroxyphenyl)-1H-indazol-3-yl]-4-(4-methylpiperazin-1-yl)-2-(tetrahydropyran-4-ylamino)benzamide], the IC50 was 46 nM on ALK F1174L (GST-His-tag), 88 nM on TRK-B, 17000 nM in the assay on ALK-negative HL60 cells and 120 nM against RET M918T. Moreover, the GI50 was 1 to 50 nM in assay [1] (averaged IC50 values of cell proliferation inhibition, class letters, read-out: IC50 BaF3 NPM-ALK L1196M cells) and 6 nM in assay [1] (cell line BaF3 NPM-ALK L1196M, read-out: IC50 of cellular proliferation, BaF3 NPM-ALK L1196M). In assay [1] (percentage of inhibition of cell proliferation at 200 nM), the “% Inhibition BaF3 NPM-ALK L1196M cells” value was found to be 83%.
